Data set [1] deals with Fibroblast Growth Factor Receptor 2 (FGFR2). As to the kind of experiment: Cerebral cortex proteomics (LC-MS) after amlexanox treatment of mice. The class given is in vivo, mouse. As to conditions: 15-month-old WT mice, 25 mg/kg amlexanox for 5 days, right cerebral cortex; unadjusted p value of log2 fold change=0.0012. On the procedure: Drug administration and animal studies. […] Treatment groups were balanced for sex.
Sample Preparation. Tissue homogenate was obtained using a Bead Mill Fast Prep-24 (MP Biomedicals). Tissue was transferred into a Lysing Matrix D tube with 750 μl of homogenization solution (5% SDS with MS-SAFE Protease and Phosphatase Inhibitor) and homogenized at 6 m/s for 40 s. Homogenate was centrifuged at 13.2×g for 10 min, the supernatant was transferred to a microcentrifuge tube and total protein was quantified with BCA.
10 μg of protein from each subject was digested with trypsin at a ratio of 1:20 using S-trap micro columns (Protifi) and desalted using Pierce Peptide Desalting Spin Columns (ThermoFisher Scientific). […]
Peptide Data Analysis. Raw data files were analyzed with Proteome Discoverer (ThermoFisher Scientific) and searched against the mouse SwissProt database using Sequest HT (missed cleavages=2; minimum peptide length=6; precursor mass tolerance=10 ppm; dynamic modifications: Oxidation/+15.995 Da, Acetyl/+42.011 Da, Met-loss/−131.040 Da, Met-loss+Acetyl/[…]; static modifications: Carbamidomethyl/+57.021 Da). […]
Statistical Analysis. […] Proteins with a combined Q-value=0.01 or greater, not quantified in 100% of samples or with CV>0.3 in pooled controls were filtered out. […]
2860 proteins were quantified in all mice. […] Other Fibroblast Growth Factor Receptors were not quantified in our assay.

The conditions of data set [2]: mouse, in vivo, ip, 100 mg/kg. On the procedure:
Drug administration and animal studies. […] A modified tolerability score was used to estimate drug tolerability. […] Male and female 15-month-old WT mice were randomly allocated to receive either 25 mg/kg amlexanox (n=9) or equivalent volume vehicle (n=10) for 5 days. Treatment groups were balanced for sex. On day 5, mice were sacrificed, perfused with normal saline, and the right cerebral cortex was isolated and immediately frozen on dry ice for proteomics.

Data set [3] has as its system mouse cerebral cortex proteome. As to the kind of experiment: Signed Jaccard Index: overlap of amlexanox-induced protein perturbations in mice with effects of proteins on dendritic spines in humans. The class given is in vivo. The conditions noted are these: amlexanox/control log2 protein abundances in mouse cerebral cortex vs effects of each protein on density of large dendritic spines in human cohort. The procedure: then the net effect of amlexanox treatment was evaluated on proteins which, in our human data, were associated with age related dendritic spine density reductions. The Signed Jaccard Index (SJI) was calculated to estimate the net overlap of amlexanox-induced protein perturbations in mice with the effects of proteins on dendritic spines in humans. The relative log2-transformed abundances for each protein in amlexanox/control groups were compared with the effects of each protein on the density of large dendritic spines extracted from the mediation analysis from our human cohort (described in Example 1) as follows:
An SJI of 0.013 compares favorably to the mean SJI reported for all drug-disease indication pairs (absolute value=0.004), indicating it is compatible with therapeutic activity. However, the SJI of 0.013 observed was lower in magnitude than the mean SJI reported for drug-disease pairs indicated specifically for CNS disorders (absolute value=0.033).

On to `CC(C)c1ccc2oc3nc(N)c(C(=O)O)cc3c(=O)c2c1` [amlexanox, Amlexanox], for which the “relative abundance of FGFR2 (amlexanox/control)” value in data set [1] amounted to 0.69. In addition, in data set [2], the modified tolerability score entry is listed as “elevated tolerability scores”. The “Signed Jaccard Index (SJI)” value in data set [3] turned out to be 0.013.

The values are drawn from patent US20240108595A1, “COMPOSITIONS AND METHODS FOR REVERSING AGE-ASSOCIATED DENDRITIC SPINE LOSS” (UNIVERSITY OF PITTSBURGH - OF THE COMMONWEALTH SYSTEM OF …, priority 2022, published 2024).
